Measurements as given in PMC12362783 (Advanced Science, 2025).

Columns and labels:
[1] = tested on: MDA‐MB‐468; test: Cell growth inhibition, CellTiter‐Glo (CTG); format: cell-based; conditions: Homo sapiens, MDA-MB-468, 120 h; CTG, 5 days, n = 3
Method: (§1) All cells were grown in a humidified incubator at 37 °C and 5% CO2.
(§2) […] […] Relative viability was calculated by normalizing the raw luminescence counts of the treated groups to those of the DMSO control groups. IC₅₀ values were calculated using sigmoidal dose‐response curve fitting with GraphPad Prism 9.0 software.

[2] = tested on: MDA‐MB‐231; test: Cell growth inhibition, CellTiter‐Glo (CTG); format: cell-based; conditions: Homo sapiens, MDA-MB-231, 120 h, read-out: IC50 MDA‐MB‐231; CTG, 5 days, n = 3
Method: as §1, §2

[3] = target: PARP1 (Homo sapiens, UniProt P09874); test: PARP enzymatic inhibition ELISA (PARP1); format: biochemical; conditions: for IC50: n = 3, mean ± SD
Chain of PARP1 (P09874 whole entry): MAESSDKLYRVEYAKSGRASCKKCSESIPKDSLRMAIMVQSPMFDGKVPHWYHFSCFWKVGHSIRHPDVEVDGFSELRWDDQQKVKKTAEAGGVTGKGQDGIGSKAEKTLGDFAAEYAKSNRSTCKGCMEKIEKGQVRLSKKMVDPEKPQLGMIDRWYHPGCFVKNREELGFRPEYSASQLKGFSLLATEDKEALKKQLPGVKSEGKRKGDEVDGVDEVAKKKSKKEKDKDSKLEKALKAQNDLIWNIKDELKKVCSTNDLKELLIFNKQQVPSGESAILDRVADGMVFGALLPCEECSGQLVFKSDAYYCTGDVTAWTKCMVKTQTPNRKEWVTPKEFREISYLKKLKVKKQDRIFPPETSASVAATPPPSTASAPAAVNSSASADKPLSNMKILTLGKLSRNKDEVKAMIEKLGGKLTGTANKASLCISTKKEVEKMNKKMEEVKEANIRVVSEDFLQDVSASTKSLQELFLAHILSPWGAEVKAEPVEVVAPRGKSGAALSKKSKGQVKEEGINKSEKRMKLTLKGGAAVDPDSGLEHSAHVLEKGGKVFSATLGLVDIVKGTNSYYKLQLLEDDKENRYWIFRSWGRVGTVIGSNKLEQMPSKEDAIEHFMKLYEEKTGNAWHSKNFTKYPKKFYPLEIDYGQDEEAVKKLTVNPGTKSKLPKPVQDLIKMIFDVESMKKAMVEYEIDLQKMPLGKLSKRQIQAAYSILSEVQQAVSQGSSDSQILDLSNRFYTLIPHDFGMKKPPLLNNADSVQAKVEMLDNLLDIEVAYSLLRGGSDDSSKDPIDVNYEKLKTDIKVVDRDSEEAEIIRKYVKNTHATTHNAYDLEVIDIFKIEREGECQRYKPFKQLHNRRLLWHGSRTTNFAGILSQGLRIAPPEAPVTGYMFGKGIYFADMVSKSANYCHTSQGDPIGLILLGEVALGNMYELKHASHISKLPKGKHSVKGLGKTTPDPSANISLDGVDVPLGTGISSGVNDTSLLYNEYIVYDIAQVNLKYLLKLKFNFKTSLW
Method: The PARP activity assay was performed by ChemPartner (Shanghai, China). Each well was precoated with histone (final conc.: 100 ng mL^−1) diluted in PBS buffer (contains 10 mmol L^−1 NaH2PO4 and 150 mmol L^−1 NaCl, pH 7.4) by incubation at 4 °C overnight. […] The reaction was initiated by the addition of 10 µL of PARP (final conc.: 0.007 nM/well) at room temperature for 60 min. Add 20 µL of anti‐Poly/Mono‐ADP Ribose Rabbit mAb. Incubate for 1.5 h at room temperature and wash the plate three times using PBST buffer. […] Incubate for 1 h at room temperature and wash the plate three times using PBST buffer. Add 25 µL Femto‐ECL Substrate A and Femto‐ECL Substrate B (1:1) mix. Immediately read chemiluminescence on Envision (Revvity, USA).

[4] = target: T1, ATR (Homo sapiens, UniProt Q13535); test: ATR kinase inhibition, Mobility Shift Assay; format: biochemical; conditions: n = 3, mean ± SD
T1 construct: purchased Eurofins 14-953
T1 sequence (Q13535 whole entry): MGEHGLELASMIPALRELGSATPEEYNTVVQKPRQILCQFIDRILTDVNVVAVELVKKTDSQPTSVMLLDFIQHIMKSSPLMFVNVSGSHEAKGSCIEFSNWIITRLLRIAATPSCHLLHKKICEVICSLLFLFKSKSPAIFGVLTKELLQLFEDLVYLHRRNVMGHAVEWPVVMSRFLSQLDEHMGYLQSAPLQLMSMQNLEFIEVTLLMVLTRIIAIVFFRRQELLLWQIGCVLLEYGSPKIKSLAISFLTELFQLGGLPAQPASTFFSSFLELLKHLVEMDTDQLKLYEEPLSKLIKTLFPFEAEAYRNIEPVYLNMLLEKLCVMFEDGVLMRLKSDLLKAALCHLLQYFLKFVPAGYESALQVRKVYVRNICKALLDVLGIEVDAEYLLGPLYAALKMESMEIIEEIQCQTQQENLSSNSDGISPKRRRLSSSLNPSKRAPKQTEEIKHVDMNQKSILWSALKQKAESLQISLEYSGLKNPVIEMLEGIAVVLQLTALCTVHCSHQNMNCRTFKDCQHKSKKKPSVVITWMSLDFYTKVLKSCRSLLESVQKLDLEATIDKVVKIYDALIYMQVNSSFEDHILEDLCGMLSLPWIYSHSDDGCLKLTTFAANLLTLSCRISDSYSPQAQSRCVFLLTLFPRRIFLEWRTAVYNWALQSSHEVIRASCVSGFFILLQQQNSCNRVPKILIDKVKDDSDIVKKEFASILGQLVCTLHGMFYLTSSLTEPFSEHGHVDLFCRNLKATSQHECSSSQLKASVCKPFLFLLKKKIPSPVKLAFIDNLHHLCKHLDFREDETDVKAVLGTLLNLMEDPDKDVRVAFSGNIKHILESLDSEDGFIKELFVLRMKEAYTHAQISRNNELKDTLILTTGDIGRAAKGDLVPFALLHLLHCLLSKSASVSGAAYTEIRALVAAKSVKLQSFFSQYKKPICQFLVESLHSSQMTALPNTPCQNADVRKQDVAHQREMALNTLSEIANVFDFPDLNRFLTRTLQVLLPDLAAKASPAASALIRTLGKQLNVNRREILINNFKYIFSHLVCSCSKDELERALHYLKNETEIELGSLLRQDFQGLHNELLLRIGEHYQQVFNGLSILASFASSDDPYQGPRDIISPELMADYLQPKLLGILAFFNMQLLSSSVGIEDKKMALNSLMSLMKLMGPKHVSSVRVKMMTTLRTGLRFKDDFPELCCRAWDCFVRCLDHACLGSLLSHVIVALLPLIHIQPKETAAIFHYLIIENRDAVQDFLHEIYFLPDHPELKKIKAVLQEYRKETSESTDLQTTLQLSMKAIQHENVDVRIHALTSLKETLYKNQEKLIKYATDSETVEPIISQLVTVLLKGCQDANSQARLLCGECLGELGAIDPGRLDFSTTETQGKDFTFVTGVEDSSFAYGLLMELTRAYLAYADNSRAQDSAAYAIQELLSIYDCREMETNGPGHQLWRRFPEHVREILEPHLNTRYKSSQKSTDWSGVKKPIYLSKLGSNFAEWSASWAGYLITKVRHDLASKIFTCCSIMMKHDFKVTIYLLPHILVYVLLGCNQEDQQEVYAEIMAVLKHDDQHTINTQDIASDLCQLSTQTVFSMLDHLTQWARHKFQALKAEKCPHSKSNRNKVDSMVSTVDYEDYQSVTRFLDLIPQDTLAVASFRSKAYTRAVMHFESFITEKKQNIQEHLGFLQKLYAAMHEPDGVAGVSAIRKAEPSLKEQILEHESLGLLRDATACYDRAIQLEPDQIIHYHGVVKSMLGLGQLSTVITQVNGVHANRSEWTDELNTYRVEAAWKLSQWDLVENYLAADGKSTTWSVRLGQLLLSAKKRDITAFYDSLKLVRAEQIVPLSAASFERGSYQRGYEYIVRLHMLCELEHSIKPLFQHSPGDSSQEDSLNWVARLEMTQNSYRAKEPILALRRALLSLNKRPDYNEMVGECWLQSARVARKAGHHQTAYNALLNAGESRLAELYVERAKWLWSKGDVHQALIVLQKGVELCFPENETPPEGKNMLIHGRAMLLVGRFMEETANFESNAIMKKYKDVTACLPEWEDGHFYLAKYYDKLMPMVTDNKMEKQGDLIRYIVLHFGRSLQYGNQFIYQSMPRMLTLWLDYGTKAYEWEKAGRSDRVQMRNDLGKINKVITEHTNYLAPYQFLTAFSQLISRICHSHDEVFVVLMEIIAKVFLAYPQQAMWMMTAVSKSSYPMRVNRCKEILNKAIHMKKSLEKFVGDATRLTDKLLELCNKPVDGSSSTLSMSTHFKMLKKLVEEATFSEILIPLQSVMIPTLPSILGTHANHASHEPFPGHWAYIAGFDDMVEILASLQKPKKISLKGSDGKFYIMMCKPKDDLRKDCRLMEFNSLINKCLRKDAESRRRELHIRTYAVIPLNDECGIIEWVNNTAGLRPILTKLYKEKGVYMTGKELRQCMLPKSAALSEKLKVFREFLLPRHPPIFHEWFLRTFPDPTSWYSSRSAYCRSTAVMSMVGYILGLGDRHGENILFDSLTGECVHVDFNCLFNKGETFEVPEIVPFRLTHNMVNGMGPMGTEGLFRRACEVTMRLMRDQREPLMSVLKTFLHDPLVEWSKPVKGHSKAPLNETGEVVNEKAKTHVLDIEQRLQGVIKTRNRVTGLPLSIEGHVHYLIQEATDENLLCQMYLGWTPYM
T1 sequence (Q8WXE1 whole entry partner): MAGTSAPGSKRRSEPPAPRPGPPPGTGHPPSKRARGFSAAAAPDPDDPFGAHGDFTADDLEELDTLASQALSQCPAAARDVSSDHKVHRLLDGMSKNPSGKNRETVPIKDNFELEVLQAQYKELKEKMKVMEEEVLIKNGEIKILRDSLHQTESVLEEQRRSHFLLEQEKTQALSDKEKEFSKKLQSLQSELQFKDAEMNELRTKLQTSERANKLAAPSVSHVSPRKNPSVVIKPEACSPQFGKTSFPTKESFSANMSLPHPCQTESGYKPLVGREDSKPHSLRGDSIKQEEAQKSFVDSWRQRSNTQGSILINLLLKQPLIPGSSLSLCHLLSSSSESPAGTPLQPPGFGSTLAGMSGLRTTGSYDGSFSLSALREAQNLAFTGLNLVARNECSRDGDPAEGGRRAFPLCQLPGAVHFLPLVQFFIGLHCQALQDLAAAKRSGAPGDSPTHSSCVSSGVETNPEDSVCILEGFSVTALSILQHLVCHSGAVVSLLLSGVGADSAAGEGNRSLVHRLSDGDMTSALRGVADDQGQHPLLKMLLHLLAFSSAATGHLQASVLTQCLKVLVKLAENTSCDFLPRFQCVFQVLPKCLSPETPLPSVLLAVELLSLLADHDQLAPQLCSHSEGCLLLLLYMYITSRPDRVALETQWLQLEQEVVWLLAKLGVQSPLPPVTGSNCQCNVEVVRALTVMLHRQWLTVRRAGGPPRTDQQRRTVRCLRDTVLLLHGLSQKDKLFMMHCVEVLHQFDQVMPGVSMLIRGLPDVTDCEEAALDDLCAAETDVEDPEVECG
Method: The in vitro ATR kinase inhibitory activities were determined by ChemPartner Co., Ltd. (Shanghai, China) using the Mobility Shift Assay. The tested compound was dissolved with DMSO and diluted to 1000/3 × of the final desired highest inhibitor concentration in the reaction. […] The assay wells were incubated at 28 °C for 4 h.

[5] = tested on: MDA‐MB‐436; test: Cell growth inhibition, CellTiter‐Glo (CTG); format: cell-based; conditions: Homo sapiens, MDA-MB-436; @5.0 µM; read-out: MDA‐MB‐436 inhibitory rate at certain concentration
Method: as §1
Growth viability was determined by the CellTiter‐Glo luminescent viability assay (Promega) 5 days after drug treatment. Cell viability was measured immediately after dosing (Day 0) and after 5 days of incubation using CellTiter‐Glo (CTG, Promega, G7573). Relative viability was calculated by normalizing the raw luminescence counts of the treated groups to those of the DMSO control groups. IC₅₀ values were calculated using sigmoidal dose‐response curve fitting with GraphPad Prism 9.0 software.

IC50 [3] | IC50 [4] | inhibition at 0.02 µM ([3]; @ 20 nM, read-out: PARP1 inhibitory rate at certain concentration) | SMILES | IC50 [1] | IC50 [2] | inhibition at 5 µM [5]
0.002 ± 0.0003 µM | 0.037 ± 0.0042 µM |  | C[C@@H]1COCCN1c1cc(CNC(=O)c2ccc(CN3CCN(C(=O)c4cc(Cc5n[nH]c(=O)c6ccccc56)ccc4F)CC3)cc2)nc(-c2ccnc3[nH]ccc23)n1 [Compound B12, (R)‐4‐((4‐(2‐fluoro‐5‐((4‐oxo‐3,4‐dihydrophthalazin‐1‐yl)methyl)benzoyl)piperazin‐1‐yl)methyl)‐N‐((6‐(3‐methylmorpholino)‐2‐(1H‐pyrrolo[2,3‐b]pyridin‐4‐yl)pyrimidin‐4‐yl)methyl)benzamide] | 2.83 ± 0.06 µM | > 50 µM | 
0.0012 ± 0.0004 µM | 0.023 ± 0.0021 µM |  | C[C@@H]1COCCN1c1cc(CNC(=O)c2cnc(N3CCN(C(=O)c4cc(Cc5n[nH]c(=O)c6ccccc56)ccc4F)CC3)nc2)nc(-c2ccnc3[nH]ccc23)n1 [Compound B14, (R)‐2‐(4‐(2‐fluoro‐5‐((4‐oxo‐3,4‐dihydrophthalazin‐1‐yl)methyl)benzoyl)piperazin‐1‐yl)‐N‐((6‐(3‐methylmorpholino)‐2‐(1H‐pyrrolo[2,3‐b]pyridin‐4‐yl)pyrimidin‐4‐yl)methyl)pyramidine‐5‐carboxamide] | 0.09 ± 0.01 µM | > 50 µM | 
0.001 ± 0.00013 µM | 0.0311 ± 0.0047 µM |  | C[C@@H]1COCCN1c1cc(CNC(=O)c2ccc(C(=O)N3CCN(C(=O)c4cc(Cc5n[nH]c(=O)c6ccccc56)ccc4F)CC3)cn2)nc(-c2ccnc3[nH]ccc23)n1 [Compound B11, (R)‐5‐(4‐(2‐fluoro‐5‐((4‐oxo‐3,4‐dihydrophthalazin‐1‐yl)methyl)benzoyl)piperazine‐1‐carbonyl)‐N‐((6‐(3‐methylmorpholino)‐2‐(1H‐pyrrolo[2,3‐b]pyridin‐4‐yl)pyrimidin‐4‐yl)methyl) picolinamide] | 0.48 ± 0.03 µM | > 50 µM | 
0.00061 ± 0.00015 µM | 0.019 ± 0.0012 µM |  | C[C@@H]1COCCN1c1cc(CNC(=O)c2ccc(C(=O)N3CCN(C(=O)c4cc(Cc5n[nH]c(=O)c6ccccc56)ccc4F)CC3)nc2)nc(-c2ccnc3[nH]ccc23)n1 [Compound B10, (R)‐6‐(4‐(2‐fluoro‐5‐((4‐oxo‐3,4‐dihydrophthalazin‐1‐yl)methyl)benzoyl)piperazine‐1‐carbonyl)‐N‐((6‐(3‐methylmorpholino)‐2‐(1H‐pyrrolo[2,3‐b]pyridin‐4‐yl)pyrimidin‐4‐yl)methyl) nicotinamide] | 1.7 ± 0.35 µM | > 50 µM | 
0.0013 ± 0.0006 µM | 0.022 ± 0.0017 µM |  | C[C@@H]1COCCN1c1cc(CNC(=O)c2ccc(N3CCN(C(=O)c4cc(Cc5n[nH]c(=O)c6ccccc56)ccc4F)CC3)cc2)nc(-c2ccnc3[nH]ccc23)n1 [Compound B13, (R)‐4‐(4‐(2‐fluoro‐5‐((4‐oxo‐3,4‐dihydrophthalazin‐1‐yl)methyl)benzoyl)piperazin‐1‐yl)‐N‐((6‐(3‐methylmorpholino)‐2‐(1H‐pyrrolo[2,3‐b]pyridin‐4‐yl)pyrimidin‐4‐yl)methyl)benzamide] | 0.99 ± 0.06 µM | > 50 µM | 
0.00064 ± 0.00021 µM | 0.205 ± 0.0131 µM |  | C[C@@H]1COCCN1c1cc(CNS(=O)(=O)c2ccc(C(=O)N3CCN(C(=O)c4cc(Cc5n[nH]c(=O)c6ccccc56)ccc4F)CC3)cc2)nc(-c2ccnc3[nH]ccc23)n1 [Compound B9, (R)‐4‐(4‐(2‐fluoro‐5‐((4‐oxo‐3,4‐dihydrophthalazin‐1‐yl)methyl)benzoyl)piperazine‐1‐carbonyl)‐N‐((6‐(3‐methylmorpholino)‐2‐(1H‐pyrrolo[2,3‐b]pyridin‐4‐yl)pyrimidin‐4‐yl)methyl) benzenesulfonamide] | 6.88 ± 0.63 µM | > 50 µM | 

The next lines start with the compound.

SMILES | IC50 [3] | IC50 [4] | inhibition at 0.02 µM ([3]; @ 20 nM, read-out: PARP1 inhibitory rate at certain concentration) | IC50 [1] | IC50 [2] | inhibition at 5 µM [5]
C[C@@H]1COCCN1c1cc(C2(NC(=O)c3ccc(C(=O)N4CCN(C(=O)c5cc(Cc6n[nH]c(=O)c7ccccc67)ccc5F)CC4)nc3)CC2)nc(-c2ccnc3[nH]ccc23)n1 [Compound A9, (R)‐6‐(4‐(2‐fluoro‐5‐((4‐oxo‐3,4‐dihydrophthalazin‐1‐yl)methyl)benzoyl)piperazine‐1‐carbonyl)‐N‐(1‐(6‐(3‐methylmorpholino)‐2‐(1H‐pyrrolo[2,3‐b]pyridin‐4‐yl)pyrimidin‐4‐yl)cyclopropyl)nicotinamide] | 0.0006 ± 6e-05 µM | 0.032 ± 0.0093 µM |  | 0.75 ± 0.16 µM | > 50 µM | 
C[C@@H]1COCCN1c1cc(CN)nc(-c2ccnc3[nH]ccc23)n1 [Compound 28] |  |  |  | 40.8 ± 4.45 µM | > 50 µM | 21.4%
C[C@@H]1COCCN1c1cc(C2(NC(=O)c3ccc(CN4CCN(C(=O)c5cc(Cc6n[nH]c(=O)c7ccccc67)ccc5F)CC4)cc3)CC2)nc(-c2ccnc3[nH]ccc23)n1 [Compound A10, (R)‐4‐((4‐(2‐fluoro‐5‐((4‐oxo‐3,4‐dihydrophthalazin‐1‐yl)methyl)benzoyl)piperazin‐1‐yl)methyl)‐N‐(1‐(6‐(3‐methylmorpholino)‐2‐(1H‐pyrrolo[2,3‐b]pyridin‐4‐yl)pyrimidin‐4‐yl)cyclopropyl)benzamide] | 0.0193 ± 0.0029 µM | 0.185 ± 0.0163 µM |  | > 50 µM | > 50 µM | 
C[C@@H]1COCCN1c1cc(C2(NC(=O)c3ccc(N4CCN(C(=O)c5cc(Cc6n[nH]c(=O)c7ccccc67)ccc5F)CC4)cc3)CC2)nc(-c2ccnc3[nH]ccc23)n1 [Compound A11, (R)‐4‐(4‐(2‐fluoro‐5‐((4‐oxo‐3,4‐dihydrophthalazin‐1‐yl)methyl)benzoyl)piperazin‐1‐yl)‐N‐(1‐(6‐(3‐methylmorpholino)‐2‐(1H‐pyrrolo[2,3‐b]pyridin‐4‐yl)pyrimidin‐4‐yl)cyclopropyl)benzamide] | 0.0023 ± 0.0005 µM | 0.292 ± 0.0139 µM |  | 0.57 ± 0.02 µM | > 50 µM | 
C[C@@H]1COCCN1c1cc(C2(N)CC2)nc(-c2ccnc3[nH]ccc23)n1 [Compound 23] |  |  |  | > 50 µM | 40.7 ± 1.36 µM | 20.5%
C[C@@H]1COCCN1c1cc(C2(NC(=O)c3cnc(N4CCN(C(=O)c5cc(Cc6n[nH]c(=O)c7ccccc67)ccc5F)CC4)nc3)CC2)nc(-c2ccnc3[nH]ccc23)n1 [Compound A12, (R)‐2‐(4‐(2‐fluoro‐5‐((4‐oxo‐3,4‐dihydrophthalazin‐1‐yl)methyl)benzoyl)piperazin‐1‐yl)‐N‐(1‐(6‐(3‐methylmorpholino)‐2‐(1H‐pyrrolo[2,3‐b]pyridin‐4‐yl)pyrimidin‐4‐yl)cyclopropyl)pyrimidine‐5‐carboxamide] | 0.0017 ± 0.0002 µM | 0.105 ± 0.0072 µM |  | 0.24 ± 0.01 µM | > 50 µM | 
C[C@@H]1COCCN1c1cc(C2(NC(=O)CCNC(=O)c3cc(Cc4n[nH]c(=O)c5ccccc45)ccc3F)CC2)nc(-c2ccnc3[nH]ccc23)n1 [Compound A3, (R)‐2‐fluoro‐N‐(3‐((1‐(6‐(3‐methylmorpholino)‐2‐(1H‐pyrrolo [2,3‐b]pyridin‐4‐yl)pyrimidin‐4‐yl)cyclopropyl)amino)‐3‐oxopropyl)‐5‐((4‐oxo‐3,4‐dihydrophthalazin‐1‐yl)methyl)benzamide] |  | > 0.5 µM | 31.8 ± 2.4% | 27.3 ± 2.34 µM | > 50 µM | 
C[C@@H]1COCCN1c1cc(C2(NS(=O)(=O)c3ccc(C(=O)N4CCN(C(=O)c5cc(Cc6n[nH]c(=O)c7ccccc67)ccc5F)CC4)cc3)CC2)nc(-c2ccnc3[nH]ccc23)n1 [Compound A8, (R)‐4‐(4‐(2‐fluoro‐5‐((4‐oxo‐3,4‐dihydrophthalazin‐1‐yl)methyl)benzoyl)piperazine‐1‐carbonyl)‐N‐(1‐(6‐(3‐methylmorpholino)‐2‐(1H‐pyrrolo[2,3‐b]pyridin‐4‐yl)pyrimidin‐4‐yl)cyclopropyl)benzenesulfonamide] | 0.00075 ± 0.00027 µM | 1.32 ± 0.189 µM |  | 0.62 ± 0.06 µM | > 50 µM | 
C[C@@H]1COCCN1c1cc(C2(NC(=O)CNC(=O)c3cc(Cc4n[nH]c(=O)c5ccccc45)ccc3F)CC2)nc(-c2ccnc3[nH]ccc23)n1 [Compound A2, (R)‐2‐fluoro‐N‐(2‐((1‐(6‐(3‐methylmorpholino)‐2‐(1H‐pyrrolo [2,3‐b]pyridin‐4‐yl)pyrimidin‐4‐yl)cyclopropyl)amino)‐2‐oxoethyl)‐5‐((4‐oxo‐3,4‐dihydrophthalazin‐1‐yl)methyl)benzamide] | 0.012 ± 0.0028 µM | 0.118 ± 0.014 µM |  | > 50 µM | 28.4 ± 1.65 µM | 
C[C@@H]1COCCN1c1cc(C2(NC(=O)CCCNC(=O)c3cc(Cc4n[nH]c(=O)c5ccccc45)ccc3F)CC2)nc(-c2ccnc3[nH]ccc23)n1 [Compound A4, (R)‐2‐fluoro‐N‐(4‐((1‐(6‐(3‐methylmorpholino)‐2‐(1H‐pyrrolo[2,3‐b]pyridin‐4‐yl)pyrimidin‐4‐yl)cyclopropyl)amino)‐4‐oxobutyl)‐5‐((4‐oxo‐3,4‐dihydrophthalazin‐1‐yl)methyl)benzamide] | 0.0034 µM | > 0.5 µM |  | 3.08 ± 0.08 µM | > 50 µM | 
